According to paper PMC5951806, “Rapid labelling and covalent inhibition of intracellular native proteins using ligand-directed N-acyl-N-alkyl sulfonamide” (Nature Communications, 2018):

Assays:
Assay in all cases: TMT LC-MSMS of 11-labelled proteins
Format in all cases: cell-based
[1] = target: T-complex protein 1 subunit theta (CCT8) (Homo sapiens, UniProt P50990); conditions: sheet Exp1, SKBR3 cells
[2] = target: T1, citrate synthase, mitochondrial (CS) (Homo sapiens, UniProt O75390)
T1 sequence (O75390 28-466): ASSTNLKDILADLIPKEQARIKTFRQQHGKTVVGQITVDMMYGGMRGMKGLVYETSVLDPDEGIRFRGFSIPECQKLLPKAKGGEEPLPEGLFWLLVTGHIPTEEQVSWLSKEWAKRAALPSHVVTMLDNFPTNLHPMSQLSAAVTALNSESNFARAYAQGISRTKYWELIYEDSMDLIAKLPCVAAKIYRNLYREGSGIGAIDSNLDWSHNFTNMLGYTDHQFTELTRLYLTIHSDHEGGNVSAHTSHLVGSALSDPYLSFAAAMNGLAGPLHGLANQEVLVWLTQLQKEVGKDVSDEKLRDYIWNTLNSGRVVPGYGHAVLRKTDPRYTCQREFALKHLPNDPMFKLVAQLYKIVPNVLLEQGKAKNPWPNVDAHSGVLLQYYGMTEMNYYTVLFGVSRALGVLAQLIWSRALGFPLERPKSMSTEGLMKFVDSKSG

Desmoplakin (DSP) = Desmoplakin (DSP) (Homo sapiens, UniProt P15924)
[3] = target: 2,4-dienoyl-CoA reductase, mitochondrial (DECR1) (Homo sapiens, UniProt Q16698)
[4] = sheet Merged, SKBR3 cells, 11 0.5 µM 3 h vs DMSO
[5] = sheet Merged, SKBR3 cells, 11 0.5 µM 3 h vs with PU-H71 10 µM

Chain of 2,4-dienoyl-CoA reductase, mitochondrial (DECR1) (Q16698 35-335): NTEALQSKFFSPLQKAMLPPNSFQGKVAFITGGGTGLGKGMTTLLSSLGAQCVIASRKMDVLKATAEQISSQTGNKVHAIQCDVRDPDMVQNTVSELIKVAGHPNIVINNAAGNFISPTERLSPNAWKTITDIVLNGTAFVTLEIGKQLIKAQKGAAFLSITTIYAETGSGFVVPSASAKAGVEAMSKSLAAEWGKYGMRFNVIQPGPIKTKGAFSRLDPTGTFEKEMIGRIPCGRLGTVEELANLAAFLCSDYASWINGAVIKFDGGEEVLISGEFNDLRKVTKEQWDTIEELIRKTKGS
Chain of Desmoplakin (DSP) (P15924 whole entry): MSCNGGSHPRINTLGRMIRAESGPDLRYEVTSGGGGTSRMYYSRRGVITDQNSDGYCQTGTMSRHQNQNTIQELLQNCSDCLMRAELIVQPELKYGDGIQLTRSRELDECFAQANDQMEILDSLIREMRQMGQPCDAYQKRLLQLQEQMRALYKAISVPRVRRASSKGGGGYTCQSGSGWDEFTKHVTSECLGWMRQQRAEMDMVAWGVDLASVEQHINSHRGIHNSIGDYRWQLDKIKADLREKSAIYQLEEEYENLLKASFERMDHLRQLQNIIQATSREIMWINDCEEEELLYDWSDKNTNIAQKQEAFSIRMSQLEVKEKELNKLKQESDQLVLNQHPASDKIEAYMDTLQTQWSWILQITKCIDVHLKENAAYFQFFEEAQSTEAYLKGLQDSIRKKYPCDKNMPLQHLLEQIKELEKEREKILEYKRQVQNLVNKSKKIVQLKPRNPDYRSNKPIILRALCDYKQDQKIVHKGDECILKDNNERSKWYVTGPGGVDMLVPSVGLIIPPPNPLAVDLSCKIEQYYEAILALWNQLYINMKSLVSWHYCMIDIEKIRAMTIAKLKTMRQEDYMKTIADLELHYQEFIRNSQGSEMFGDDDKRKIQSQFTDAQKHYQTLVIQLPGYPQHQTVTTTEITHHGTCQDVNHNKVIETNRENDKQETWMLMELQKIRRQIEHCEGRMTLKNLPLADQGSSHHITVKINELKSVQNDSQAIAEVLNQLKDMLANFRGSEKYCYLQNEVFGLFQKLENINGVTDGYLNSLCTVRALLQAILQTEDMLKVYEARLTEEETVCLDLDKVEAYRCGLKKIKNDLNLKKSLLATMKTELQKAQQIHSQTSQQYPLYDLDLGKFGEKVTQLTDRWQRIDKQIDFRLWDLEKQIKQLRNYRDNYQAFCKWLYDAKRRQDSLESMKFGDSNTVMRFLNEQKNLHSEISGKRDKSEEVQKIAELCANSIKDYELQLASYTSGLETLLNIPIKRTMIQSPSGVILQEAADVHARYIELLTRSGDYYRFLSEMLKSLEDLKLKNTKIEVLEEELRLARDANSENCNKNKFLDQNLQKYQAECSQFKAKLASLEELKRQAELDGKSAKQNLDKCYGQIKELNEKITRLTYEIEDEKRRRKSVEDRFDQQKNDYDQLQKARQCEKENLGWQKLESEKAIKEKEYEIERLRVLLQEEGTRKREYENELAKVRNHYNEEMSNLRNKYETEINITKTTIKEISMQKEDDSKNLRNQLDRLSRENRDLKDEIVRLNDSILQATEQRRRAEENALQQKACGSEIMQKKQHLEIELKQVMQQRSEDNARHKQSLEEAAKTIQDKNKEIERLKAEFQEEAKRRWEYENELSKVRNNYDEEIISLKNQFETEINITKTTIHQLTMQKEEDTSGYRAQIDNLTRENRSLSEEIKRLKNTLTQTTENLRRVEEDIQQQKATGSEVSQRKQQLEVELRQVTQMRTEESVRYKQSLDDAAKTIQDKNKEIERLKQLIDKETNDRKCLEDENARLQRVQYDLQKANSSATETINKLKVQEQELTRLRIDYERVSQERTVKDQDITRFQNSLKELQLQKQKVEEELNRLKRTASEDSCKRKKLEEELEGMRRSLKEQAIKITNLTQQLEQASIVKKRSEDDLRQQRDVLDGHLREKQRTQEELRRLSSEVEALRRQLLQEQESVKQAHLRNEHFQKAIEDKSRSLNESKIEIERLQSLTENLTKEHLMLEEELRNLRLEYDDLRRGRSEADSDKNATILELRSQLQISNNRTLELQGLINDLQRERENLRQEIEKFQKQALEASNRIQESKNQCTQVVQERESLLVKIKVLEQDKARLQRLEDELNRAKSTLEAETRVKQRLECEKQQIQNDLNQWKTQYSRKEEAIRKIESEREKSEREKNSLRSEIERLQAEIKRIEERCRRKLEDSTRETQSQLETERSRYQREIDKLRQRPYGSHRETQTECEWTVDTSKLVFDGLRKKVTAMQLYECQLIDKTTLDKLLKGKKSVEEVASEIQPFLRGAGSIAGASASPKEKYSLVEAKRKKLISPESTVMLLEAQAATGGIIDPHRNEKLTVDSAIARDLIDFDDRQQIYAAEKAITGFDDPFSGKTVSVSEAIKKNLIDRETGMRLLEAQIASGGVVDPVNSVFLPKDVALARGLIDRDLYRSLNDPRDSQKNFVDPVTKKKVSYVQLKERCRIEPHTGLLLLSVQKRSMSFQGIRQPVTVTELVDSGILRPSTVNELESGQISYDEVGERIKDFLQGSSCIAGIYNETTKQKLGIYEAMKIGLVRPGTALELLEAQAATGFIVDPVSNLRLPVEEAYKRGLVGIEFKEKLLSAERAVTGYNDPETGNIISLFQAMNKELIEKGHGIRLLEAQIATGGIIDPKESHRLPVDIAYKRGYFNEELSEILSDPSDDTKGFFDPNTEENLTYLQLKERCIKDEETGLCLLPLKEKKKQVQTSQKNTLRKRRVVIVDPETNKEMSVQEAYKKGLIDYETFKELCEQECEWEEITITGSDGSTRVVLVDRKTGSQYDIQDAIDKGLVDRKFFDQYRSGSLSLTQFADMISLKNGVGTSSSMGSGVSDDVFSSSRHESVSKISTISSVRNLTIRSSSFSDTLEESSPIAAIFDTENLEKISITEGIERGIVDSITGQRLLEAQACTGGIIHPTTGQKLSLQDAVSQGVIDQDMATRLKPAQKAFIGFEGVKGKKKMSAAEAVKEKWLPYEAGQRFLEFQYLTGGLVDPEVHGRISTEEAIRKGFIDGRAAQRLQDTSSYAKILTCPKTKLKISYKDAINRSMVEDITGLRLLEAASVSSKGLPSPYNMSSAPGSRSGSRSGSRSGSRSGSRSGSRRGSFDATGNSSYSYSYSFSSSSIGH

CC(=O)Oc1ccc2c(c1)Oc1cc(OC(C)=O)ccc1C21OC(=O)c2cc(C(=O)NCCOCCOCCNC(=O)CCCC(=O)N(CC#N)S(=O)(=O)c3ccc(C(=O)NCCCn4c(Sc5cc6c(cc5I)OCO6)nc5c(N)ncnc54)cc3)ccc21 [compound 11]
Abundance Ratio: (11) / (DMSO) ([1]; 11 0.5 µM 3 h vs DMSO): 2.74 | Abundance Ratio: (11) / (11 with PU-H71) ([1]; 11 0.5 µM 3 h vs with PU-H71 10 µM): 0.821 | Abundance Ratio: (11) / (11 with PU-H71) ([2]; sheet Exp2, CS): 0.812 | Abundance Ratio: (11) / (DMSO) ([2]; sheet Exp2, CS): 1.581 | Abundances (Grouped): 11 ([2]; sheet Exp2, CS): 26.4 | Abundances (Grouped): 11 with PU-H71 ([2]; sheet Exp2, CS, with PU-H71): 32.5 | Abundance Ratio: (11) / (DMSO) [2, 4]: 1.555 | Abundance Ratio: (11) / (11 with PU-H71) [2, 5]: 0.796 | Abundance Ratio: (11) / (11 with PU-H71) (Desmoplakin (DSP); Exp3, DSP): 0.922 | Abundance Ratio: (11) / (DMSO) (Desmoplakin (DSP); Exp3, DSP): 1.358 | Abundances (Grouped): 11 (Desmoplakin (DSP); Exp3, DSP): 44.8 | Abundances (Grouped): 11 with PU-H71 (Desmoplakin (DSP); Exp3, DSP): 48.6 | Abundance Ratio: (11) / (11 with PU-H71) (Desmoplakin (DSP); sheet Exp2, DSP): 1.054 | Abundance Ratio: (11) / (DMSO) (Desmoplakin (DSP); sheet Exp2, DSP): 1.067 | Abundances (Grouped): 11 (Desmoplakin (DSP); sheet Exp2, DSP): 43.1 | Abundances (Grouped): 11 with PU-H71 (Desmoplakin (DSP); sheet Exp2, DSP): 40.9 | Abundance Ratio: (11) / (DMSO) (Desmoplakin (DSP); [4]): 1.203 | Abundance Ratio: (11) / (11 with PU-H71) (Desmoplakin (DSP); [5]): 0.986 | Abundance Ratio: (11) / (DMSO) ([3]; sheet Exp1, SKBR3 cells, 11 0.5 µM 3 h vs DMSO): 2.538 | Abundance Ratio: (11) / (11 with PU-H71) ([3]; sheet Exp1, SKBR3 cells, 11 0.5 µM 3 h vs with PU-H71 10 µM): 0.793 | Abundance Ratio: (11) / (11 with PU-H71) ([3]; sheet Exp2, DECR1): 0.758 | Abundance Ratio: (11) / (DMSO) ([3]; sheet Exp2, DECR1): 1.823 | Abundances (Grouped): 11 ([3]; sheet Exp2, DECR1): 59.8 | Abundances (Grouped): 11 with PU-H71 ([3]; sheet Exp2, DECR1, with PU-H71): 78.9 | Abundance Ratio: (11) / (DMSO) [3, 4]: 2.151 | Abundance Ratio: (11) / (11 with PU-H71) [3, 5]: 0.775
